Two compounds from US11649502B2, “Exosomal microRNA in serum as an indicator for the activation of brown and beige fat tissue (BAT)” (RHEINISCHE FRIEDRICH-WILHELMS-UNIVERSITÄT BONN, priority 2015, dated 2023) can be followed below.

For one test, the system named is C57BL/6J wild type mice. The experiment in a line: qPCR of exosomal miRNAs in mouse serum after BAT activation. Type of test: in vivo. The method, then:
Cold exposure was performed by housing 12 week old male mice at 4° C. for 7 days. The β3-adrenergic agonist CL-316,243 (#1499, Tocris, Wiesbaden, GER, 0.2 mg/mL in 0.9 W/V % NaCl) was administered by subcutaneous injection (1 μg per g body weight) for 7 days. Control-treated C57BL/6J mice received vehicle injections (0.9% NaCl) correspondingly. Blood collections were performed after 4 hours of fasting.
(Real-time PCR tracks product formation cycle by cycle.)

The test system of test [1] is UCP-1. Nature of the test: UCP-1 expression after NE treatment in primary murine white adipocytes. Type of test: cell-based, mouse. Conditions: primary murine white adipocytes treated with NE.
Test [2] deals with UCP-1. The experiment in a line: UCP-1 expression after NE treatment in 3T3-L1 cells. The test is classed as cell-based. Conditions: 3T3-L1 cells after NE treatment. From the text: The supernatant was withdrawn and used for exosome isolation.
Setting [3] is: serum of mice with active BAT (CL-316,243 or cold).

As to `C[C@H](Cc1ccc2c(c1)OC(C(=O)[O-])(C(=O)[O-])O2)NC[C@H](O)c1cccc(Cl)c1.[Na+].[Na+]` [CL], the “miR-133a in serum-derived exosomes” value with C57BL/6J wild type mice (CL-treated mice, 1 μg per g body weight s.c. for 7 days) is “down-regulated”. In the test on C57BL/6J wild type mice (setting [3]), the “miR-34c* in serum exosomes (qPCR)” value is “significantly up-” and the “miR-92a in serum exosomes (qPCR)” value was “down-regulated”.
`NC[C@H](O)c1ccc(O)c(O)c1` [NE, norepinephrine]: the results for the UCP-1 expression entry with UCP-1 [1] and in the test with UCP-1 [2] were “significant increase” and “did not significantly increase”, respectively.
